Consider 79 compounds from the METLIN SMRT retention time set (Domingo-Almenara et al. 2019).

The nature of the data set: gradient 5% acetonitrile 3 min, to 50% in 2 min, to 85% in 15 min, held 3 min, 100 µL/min. The settings on record: column: Zorbax Extend-C18 2.1 x 50 mm; eluents: water / acetonitrile, 0.1% formic acid. In a few lines:
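The system's dead and dwell volumes were 40 μL and 900 μL, with a Zorbax Extend-C18 column (2.1 × 50 mm, 1.8 μm) run at 100 μL/min in water and acetonitrile containing 0.1% formic acid each. Pure standards were analyzed in mixtures of ~100 molecules by HPLC–quadrupole time-of-flight mass spectrometry in positive and negative ionization mode. Retention time was assigned from computationally picked, manually inspected adduct peaks.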
`O=C(Cn1cnc2nc(N3CCCC(C(=O)NC4CC4)C3)sc2c1=O)Nc1cc(F)ccc1F` (centres undefined): the RP-LC retention time was 693 s.

Compound `Clc1cccc(N2CCN(c3ncnc4[nH]ncc34)CC2)c1` yielded an RP-LC retention time of 725 s.

On to `CCC(C)(C)NS(=O)(=O)c1cccc(-c2nc(-c3ccccc3)no2)c1`, for which the RP-LC retention time was 1230 s.

`CCC(C)NC(=O)CCc1cc2cc(OC)ccc2[nH]c1=O` (centres undefined) came in with an RP-LC retention time of 668 s.

With `Cc1ccc2oc(C(=O)N3CCC(CCN4CCCCC4)CC3)cc(=O)c2c1`, the RP-LC retention time worked out at 611 s.

`O=C(CCSc1ccccc1)Nc1cccc(-c2ccn[nH]2)c1` gave an RP-LC retention time of 769 s.

As for `O=C(c1ccc(F)c(F)c1)N1CCCC(c2ccnc(-c3cccc(F)c3)n2)C1` (centres undefined), the RP-LC retention time was 1120 s.

With `COC(=O)c1ccccc1NC(=O)NCc1ccccc1`, the RP-LC retention time came to 855 s.

Turning to `COc1ccc(NC(=O)c2cc3ccccc3c(=O)o2)c([N+](=O)[O-])c1`, the RP-LC retention time turned out to be 920 s.

In turn, `O=C(NCCCN1CCCC1)c1ccc(-c2noc(-c3ccccc3)n2)s1` yielded an RP-LC retention time of 680 s.

`CC(C)CC(=O)Nc1ccc(N2CCCC(C)C2)cc1C(=O)O` (centres undefined) returned an RP-LC retention time of 671 s.

With `O=C(NCc1ccc2c(c1)OCO2)C1CCCN(C(=O)c2cc(-c3ccncc3)n[nH]2)C1` (centres undefined), the RP-LC retention time stood at 599 s.

In turn, `CC(C)Cn1c(=O)c(-c2ccc(C(=O)NCCC3=CCCCC3)cc2)nc2ccccc21` registered an RP-LC retention time of 1300 s.

With `COc1ccccc1NC(=O)NC1CCN(c2ccc(C)c(C)c2)C1=O` (centres undefined), the RP-LC retention time came out at 870 s.

Turning to `CS(=O)(=O)N1CCC(C(=O)N2CCCCC2)Oc2ccc(Cl)cc21` (centres undefined), the RP-LC retention time came out at 793 s.

With `O=C(c1ccco1)N1CCN(S(=O)(=O)CCCOc2ccc3c(c2)OCO3)CC1`, the RP-LC retention time is 764 s.

Compound `CCCCC(=O)N1CCN(c2nc3ccccc3n(CC(C)C)c2=O)CC1` gave an RP-LC retention time of 1110 s.

`Cn1cc(CC(=O)NCc2ccc(Br)cc2)c2cccnc21` gave an RP-LC retention time of 736 s.

In the case of `CCOC(=O)C1CCN(C(=O)CCc2cc3cc(C)ccc3[nH]c2=O)CC1`, the RP-LC retention time is 729 s.

Regarding `CCCn1cc(S(=O)(=O)NCc2cccc(Cl)c2)c2cccnc21`, the RP-LC retention time worked out at 950 s.

As for `O/C(=C\Sc1nnc(COc2ccc(Cl)cc2Cl)o1)c1ccc(F)cc1`, the RP-LC retention time was found to be 915 s.

Compound `O=C(NCC1CC1)C1CCCN(c2nccn3nc(-c4ccccc4Cl)cc23)C1` (centres undefined) came in with an RP-LC retention time of 816 s.

As to `CN(CC1CCOC1)C(=O)c1cccc(Br)c1` (centres undefined), the RP-LC retention time came to 718 s.

In turn, `CCc1ccc(-c2ccc(=O)n(CCc3nc(-c4ccc5c(c4)OCO5)no3)n2)cc1` had an RP-LC retention time of 1070 s.

The compound `CCOc1ccccc1N1CCN(Cc2nc3nc(C)cc(N4CCCC4)n3n2)CC1` yielded an RP-LC retention time of 627 s.

`CN(Cc1ccco1)C(=O)CC1CCN(C(=O)c2cc3cc(Cl)ccc3[nH]2)CC1`: the RP-LC retention time was 897 s.

On to `CC(C)NC(=O)C1CCN(c2nc3ccc(-c4cccnc4)nc3s2)CC1`, for which the RP-LC retention time came to 605 s.

As to `O=C(NCc1csc(-c2ccccc2)n1)C1CCCN(c2ccc(-c3ccco3)nn2)C1` (centres undefined), the RP-LC retention time worked out at 641 s.

In the case of `Cc1cc(C(=O)NCCc2ccco2)c2c(=O)n(C)c(=O)n(C)c2n1`, the RP-LC retention time turned out to be 688 s.

`CCOC(=O)c1c(C)[nH]c(CCC(=O)NCCC(C)C)c1C` had an RP-LC retention time of 816 s.

The compound `CCOC(=O)c1sc(NC(=O)c2cc(=O)c3ccccc3o2)nc1-c1ccccc1` showed an RP-LC retention time of 1010 s.

Regarding `Cc1ccc(CNC(=O)C2(C)CN(S(C)(=O)=O)CC(=O)N2c2ccc(Cl)cc2)cc1` (centres undefined), the RP-LC retention time was 850 s.

In the case of `COc1ccc(OCc2nc(-c3ccc(N4CCCCC4)nc3)no2)cc1`, the RP-LC retention time is 1010 s.

On to `Cc1cc(C)c(C(=O)N2CCC(CC(=O)NCCCN3CCCCCC3)CC2)[nH]1`, for which the RP-LC retention time turned out to be 594 s.

For the compound `CCc1nc(-c2nnn(-c3ccccc3)c2C)no1`, the RP-LC retention time worked out at 863 s.

`CC1(C)C(=O)Nc2ccc(S(=O)(=O)N3CCC(c4noc(C5CC5)n4)C3)cc21` (centres undefined) yielded an RP-LC retention time of 747 s.

Take `CCOc1ccc(-c2noc(Cn3c(=O)n(-c4ccc(C)cc4)c(=O)c4sccc43)n2)cc1OC`: the RP-LC retention time is 987 s.

Compound `O=C(Nc1nc(-c2cccnc2)cs1)C(c1ccccc1)n1cccc1` (centres undefined) displayed an RP-LC retention time of 662 s.

With `Cn1cc(S(=O)(=O)N2CCC(C(=O)NC3CC3)CC2)cc1C(=O)N1CCCC1`, the RP-LC retention time was 641 s.

In the case of `FC(F)(F)c1cnc(N2CCN(c3ccccc3)CC2)c(Cl)c1`, the RP-LC retention time came to 1390 s.

On to `O=C(C1CCN(c2cnn(Cc3ccccc3)c(=O)c2)CC1)N1CCSCC1`, for which the RP-LC retention time stood at 648 s.

On to `COc1cc(C(=O)NC(CC(C)C)C(=O)Nc2nc3ccccc3[nH]2)cc(OC)c1OC` (centres undefined), for which the RP-LC retention time is 733 s.

As to `Cc1ccc(Nc2c(-c3ccc(Cl)cc3)nc3ncccn23)cc1Cl`, the RP-LC retention time stood at 1020 s.

With `Cc1noc(C)c1CCNC(=O)C(C)n1c2ccccc2c2cnn(C)c(=O)c21` (centres undefined), the RP-LC retention time is 741 s.

As to `COc1ccccc1NC(=O)C1CCN(S(=O)(=O)c2c(C)nn(-c3ccccc3)c2C)CC1`, the RP-LC retention time was determined as 981 s.

In turn, `O=C(NC1CCN(c2cc(N3CCCC3)cnn2)C1)C1CC1` (centres undefined) gave an RP-LC retention time of 578 s.

With `CCN1CCN(c2nccc(-c3cnc4nc(-c5ccncc5)nn4c3C)n2)CC1`, the RP-LC retention time turned out to be 562 s.

Take `O=C(NCc1ccccc1C(F)(F)F)C1CCN(c2cnc3nccnc3c2)CC1`: the RP-LC retention time is 747 s.

`O=C(Cc1ccc(Cl)cc1)NC1CCN(c2nnc3ccccn23)CC1` registered an RP-LC retention time of 656 s.

Regarding `COC(=O)c1cccc(NS(=O)(=O)c2cc3n(c2)CCCNC3=O)c1`, the RP-LC retention time was 641 s.

Compound `OCC1CN(C2CCC2)CC12CCN(Cc1ccccc1F)CC2` (centres undefined) showed an RP-LC retention time of 591 s.

`Cc1ccc(-n2nc(N3CCCC(C(=O)NCc4ccc(OC(C)C)cc4)C3)ccc2=O)cc1Cl` (centres undefined) displayed an RP-LC retention time of 999 s.

As for `CC(Oc1ccccc1)C(=O)N1CC(n2ccnc2)C1` (centres undefined), the RP-LC retention time came out at 584 s.

Take `CC(C)CNC(=O)c1nnn2c1COC(c1ccc(Br)cc1)C2` (centres undefined): the RP-LC retention time is 973 s.

In turn, `CCOc1cc(-c2nc(C3CC(=O)N(c4ccc(F)c(Cl)c4)C3)no2)cc(OCC)c1OCC` (centres undefined) had an RP-LC retention time of 1290 s.

The compound `CCC(C)C(=O)NC1CCN(C2=NS(=O)(=O)C(c3ccccc3)=C2C)CC1` (centres undefined) displayed an RP-LC retention time of 752 s.

With `CCN1C(=O)COc2ccc(-c3noc(C4CCN(C(C)=O)CC4)n3)cc21`, the RP-LC retention time worked out at 744 s.

Compound `Cc1cccc2nnc(N3CCN(C(=O)c4cccc(Br)c4)CC3)n12` had an RP-LC retention time of 683 s.

Consider `CCCNC(=O)C1CCN(c2ccc(SCC(=O)Nc3ccc(C)cc3)nn2)CC1`, for which the RP-LC retention time was 645 s.

With `CN(CCc1noc(-c2ccc(C(=O)N3CCN(c4ccccn4)CC3)cc2)n1)C(=O)c1ccccc1`, the RP-LC retention time is 625 s.

As for `COc1ccc(-c2nc(-c3ccc4c(c3)nc(C)c(=O)n4C)no2)cc1OC`, the RP-LC retention time came to 876 s.

`Cc1ccc(Nc2nc(C(=O)NC3CCS(=O)(=O)C3)nc3ccccc23)cc1` (centres undefined) gave an RP-LC retention time of 685 s.

As to `COc1cccc(Cn2nc3n(C)c(=O)c4ccc(C(=O)NC5CCCC5)cc4n3c2=O)c1`, the RP-LC retention time turned out to be 851 s.

In the case of `Cc1ccccc1NC(=O)C1CCN(S(=O)(=O)c2cc(-c3noc(C4CCC4)n3)cs2)CC1`, the RP-LC retention time was 1060 s.

Turning to `Cc1ccccc1-n1c(=O)c2sccc2n(Cc2nc(-c3ccc(C(C)(C)C)cc3)no2)c1=O`, the RP-LC retention time amounted to 1080 s.

Turning to `Cc1nc(-c2cnccn2)nc2c1CCC(=O)N2CCC1=CCCCC1`, the RP-LC retention time turned out to be 876 s.

For `CCN1C(=O)c2ccccc2S(=O)c2ccc(C(=O)N3CCN(c4ccccn4)CC3)cc21` (centres undefined), the RP-LC retention time is 595 s.

`CSc1ccc(CNC(=O)C2CCCN(c3nn4c(=O)c5c(nc4s3)CCCC5)C2)cc1` (centres undefined) showed an RP-LC retention time of 792 s.

`COc1cc2c(cc1CNC(=O)COc1ccc(Cl)c(C)c1)OCCCO2` gave an RP-LC retention time of 1010 s.

Regarding `Cc1nc(CC(=O)N2CCC(C(N)=O)CC2)cs1`, the RP-LC retention time worked out at 646 s.

Regarding `Cc1nc2c(sc3nc(-c4ccccc4)ccc32)c(=O)n1CC(=O)Nc1ccc(F)cc1`, the RP-LC retention time was 1040 s.

`Fc1ccccc1-c1noc(NC2CCCC2)n1` gave an RP-LC retention time of 929 s.

`O=C(CSc1ccc(N2CCN(c3ccccc3)CC2)nn1)NCc1ccco1` gave an RP-LC retention time of 735 s.

In turn, `O=C(c1ccccc1F)N1CCN(C(=O)c2nnn3c2COC(c2ccc(Cl)cc2)C3)CC1` (centres undefined) displayed an RP-LC retention time of 914 s.

`O=C(NC1CCCCC1)c1ccc(-n2cccn2)nc1` showed an RP-LC retention time of 815 s.

Take `Cc1noc(C)c1CC(=O)N1CCCCCCNC(=O)[C@@H]2CCCC[C@@H]21`: the RP-LC retention time is 739 s.

As to `O=C1CC(c2ccc(F)cc2)Cc2c1cnn2-c1nc2ccccc2[nH]1` (centres undefined), the RP-LC retention time is 891 s.

`Cc1ccccc1Cn1c2ccccc2c2cnn(CC(=O)NCc3ccco3)c(=O)c21` returned an RP-LC retention time of 975 s.

Consider `CNC(=O)C1CCCN(c2nc3ncn(CC(=O)NCCc4ccc(Cl)cc4)c(=O)c3s2)C1` (centres undefined), for which the RP-LC retention time came out at 681 s.
